TGI data for 15 molecules are collected here from PubChem BioAssay (NCI).

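Five concentrations, 48 hours, 96-well plates. Definition used: TGI = concentration required for complete inhibition of growth.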 Bounds are passed on as bounds.

Common to all, as to assay: NCI anticancer screen, dose series, 48 h
The subject of assay [1] is SW-620 colon.
The subject of assay [2] is OVCAR-3 ovarian.
The test system of assay [3] is SF-295 CNS.
The subject of assay [4] is MOLT-4 leukemia.
Assay [5] has as its system COLO 205 colon.
The subject of assay [6] is HOP-62 NSCLC.
Assay [7] relates to RXF 393 renal.
Assay [8] has as its system SF-268 CNS.
Assay [9] relates to M14 melanoma.

Take `CC1(C)Oc2ccccc2N2O[C@@H]3C(=O)N(c4ccccc4)C(=O)[C@@H]3C21c1ccccc1` (stereo partly drawn): the TGI in [1] was above 100 µM; in [2], 47 µM; in [3], 32.2 µM; in [4], above 100 µM; in [5], above 100 µM; in assay [6], 31.5 µM. Besides, the figures for the TGI in [7], in [8] and in assay [9] were 60.8 µM, above 100 µM and 46.4 µM, respectively.
On to `CCC1(Cl)C(=O)NC(=O)N(C2CC(O)C(CO)O2)C1N=[N+]=[N-]` (stereo not drawn), for which the TGI in assay [1], in assay [2], in [3], in assay [4], in assay [5] and in assay [6] was above 100 µM in each case. For the same molecule, the TGI in assay [7], in [8] and in [9] was above 100 µM each time.
In the case of `BrC(Br)([P+](c1ccccc1)(c1ccccc1)c1ccccc1)[P+](c1ccccc1)(c1ccccc1)c1ccccc1`, the TGI is 29.6 µM in [1]; 28.7 µM in [2]; above 100 µM in [3]; 61.8 µM in [4]; 29.9 µM in [5]; above 100 µM in assay [6]. Moreover, the values for the TGI in assay [7], in [8] and in [9] were 23.6 µM, above 100 µM and 48.9 µM, respectively.
As for `CCOC(=O)c1cc(C(=O)O)c(=O)n2c1[nH]c1ccccc12`, the TGI in [1], in assay [2], in [3], in assay [4], in assay [5] and in assay [6] was above 100 µM each time. Besides, the TGI in [7], in [8] and in [9] was above 100 µM in each case.
For `O=c1/c(=C/c2ccc3c(c2)OCO3)sc2nnc(Cc3ccccc3)n12`, the TGI in [1], in assay [2], in assay [3], in assay [4], in assay [5] and in assay [6] was above 100 µM each time. The TGI in assay [7], in assay [8] and in [9] was above 100 µM in each case.
On to `c1cc2ccc1C1NCCCN1CCN1CCCNC1c1ccc(cc1)C1NCCCN1CCN1CCCNC21` (stereo not drawn), for which the TGI in [1] was 48.5 µM; in [2], above 100 µM; in assay [3], above 100 µM; in [4], above 100 µM; in assay [5], above 100 µM; in [6] it was above 100 µM. Besides, the TGI in assay [8] and in [9] was above 100 µM throughout.
Regarding `CC12O[Te]34OC1(C)C(C)(O3)C2(C)O4`, the TGI turned out to be 32.6 µM in assay [1]; 30.4 µM in assay [2]; 18.3 µM in assay [3]; 34.6 µM in [4]; 31.1 µM in [5]; 36.8 µM in assay [6]. In addition, the TGI in assay [7] was determined as 27 µM; in assay [8], 23.9 µM; in [9], 33.7 µM.
`C1=CC=C2NCCSCCNC3=CC=CC=CC3=NCCSCCN=C2C=C1`: the TGI in assay [1], in assay [2], in assay [3], in assay [4], in assay [5] and in assay [6] was above 100 µM each time. Besides, the TGI in assay [8] and in assay [9] was above 100 µM each time.
For the molecule `COC(=O)Cc1cc(=O)oc2c1C(=O)CCC2`, the TGI in assay [1], in assay [2], in assay [3], in assay [4], in assay [5] and in assay [6] was above 100 µM in each case. Moreover, the TGI in assay [7], in assay [8] and in [9] was above 100 µM in each case.
For the molecule `O=C1OC(c2ccc(Cl)c3ccccc23)c2ccccc21` (stereo not drawn), the TGI in [3], in [4], in assay [5], in assay [6], in [7] and in [8] was above 100 µM in each case. This molecule also registered a TGI in assay [9] above 100 µM.
Regarding `COc1cc2c3c(c1OC)/C(=N/OS(=O)(=O)c1ccc(C)cc1)CC3N(S(=O)(=O)c1ccc(C)cc1)CC2` (stereo not drawn), the TGI in assay [1], in [2], in [3], in [5], in assay [6] and in [7] was above 100 µM each time. Besides, the TGI in [8] and in [9] was above 100 µM each time.
Regarding `CN1C(=O)CC2(C)c3cc(C=O)ccc3N(C)C12` (stereo not drawn), the TGI in [1], in assay [2], in [3], in assay [4], in assay [5] and in assay [6] was above 100 µM in each case. For the same molecule, the TGI in [7], in assay [8] and in assay [9] was above 100 µM each time.
With `CN1C=C(C(N)=O)C2CC(O)[C@@](NC(=O)CS(N)(=O)=O)(C(=O)O)C2C1` (stereo partly drawn), the TGI in assay [1] was above 91.5 µM; in assay [2], 42.6 µM; in assay [3] it was 6.97 µM; in [4], 31.6 µM; in assay [5] it was 29.2 µM; in assay [6], 4.27 µM. The values for the TGI in assay [7], in assay [8] and in assay [9] were 4.16 µM, 10.3 µM and 2.8 µM, respectively.
Regarding `CCOc1ccccc1NC(=O)CCC(=O)NN`, the TGI in [1], in [2], in assay [3], in assay [4], in assay [5] and in assay [6] was above 100 µM in each case. The TGI in [7], in assay [8] and in assay [9] was above 100 µM each time.
Consider `Cc1nnc(N=Nc2c(O)[nH]c3ccccc23)[nH]c1=O`, for which the TGI in assay [1], in assay [2], in assay [3], in [4], in assay [6] and in assay [8] was above 100 µM throughout. Further, in assay [9], the TGI is above 100 µM.
